Test results as given in patent US20240293466A1, “DIFFERENTIAL CXCR4 […] HEMATOPOIETIC PROGENITOR CELLS VERSUS STEM CELLS DIRECTS HOMING AND LONG-TERM ENGRAFTMENT” (priority 2021, published 2024).

Key:
[1] = tested on: CD34+CD38- HSC-enriched cells; test: Long-term (24 week) engraftment of transduced CD34+CD38- cells in NSG mice; assay type: in vivo, human; details: 24 weeks
Text: (§1) Mice were irradiated with 280 cGy prior to transplant.
At 12 weeks following transplant, bone marrow was harvested via aspirate of the femur for in vivo engraftment analysis. For animals that received IBM injections into one femur, the non-injected alternate femur was aspirated. For 24 week and homing analysis, mice were sacrificed, and bone marrow was harvested from both the rear and forelimbs. Cells were stained fresh with the following antibodies: PerCP anti-human CD45 (BioLegend 304026), Anti-human CD33 PE-Cy7 (eBioscience 25-0338-42), APC-Cy7 Mouse Anti-Human CD19 (BD 557791), Anti-Human CD3 PE (BD BioSciences 555340), and APC Mouse Anti-Human CD34 (BD BioScience 555824). Red bloods cells were lysed after staining using red blood cell lysis buffer.
Next, CD34+CD38−HSC-enriched cells were sorted, transduced with GFP LV^CXCR4 vector or GFP LV control vector, and transplanted them IV or IBM in two limiting dilutions to irradiated NSG mice to assess engraftment of the long-term repopulating HSC at 6 months post-transplant (FIG. 5F-5G). […] The slightly higher engraftment of untransduced IV transplanted cells (FIGS. 5F and 10C) was likely because LV preparations often contain some defective viral particles, which, like VLP, would deliver CXCR4 protein but not result in an effective transduction (transgene transfer or GFP+cells). […]

[2] = tested on: MPB CD34+ HSPC / CD34+CD38- cells; test: Gene transfer efficiency of LV vectors in HSPC; assay type: cell-based, human
Method: UCB and G-CSF MPB were obtained and CD34+HSPC were isolated by magnetic selection with Indirect CD34 Microbead kit, human (Miltenyi, 130-046-701). CD34+purity was >95% as confirmed by flow cytometry. CD34+CD38−cells were isolated from G-CSF MPB by magnetic selection with CD34+CD38−Isolation Kit, human (Miltenyi, 130-114-822) and cryopreserved. Thawed CD34+ or CD34+CD38−cells were cultured in X-VIVO 10 (Lonza BE02-055Q) or SCGM (CellGenix 20806-0500) supplemented with 2% human serum albumin, 100 ng/mL TPO, 300 ng/mL SCF, and 300 ng/mL FLT3-L (all cytokines purchased from Peprotech) at a cell density of 2-5×10^6 CD34+cells/mL. Media was supplemented with Birb 796 (600 nM) (Selleckchem) throughout culture and Prostaglandin E2 (10 μM) (Cayman) at plating, transduction, and 1 hour before harvest. Cells were transduced with a lentiviral vector in culture for 36-42 hours where indicated. CD34+HSPC were transduced at a final concentration of 5×10^7-1×10^8 IU/mL. Following culture, CD34+HSPC were harvested and washed with PBS, resuspended in PBS, and used in in vivo or in vitro experiments, as described below.

[3] = tested on: CD34+CD38- HSC-enriched cells; test: CXCR4 expression (flow cytometry MFI) on sorted transduced cells at time of transplant; assay type: cell-based, human; details: CD34+CD38-BFP+ cells, 72 hours after gene transfer
Text: All LV vectors were packaged using the Gag-Pol, Rev and VSV-G envelope plasmids. All vectors were under the control of the MNDU3 promoter. The GFP LV construct was pRRL.SIN.cPPT.MNDU3.eGFP.WPRE. The BFP LV construct was designed by replacing the GFP cDNA in pRRL.SIN.cPPT.MNDU3.eGFP.WPRE.with mTag2BFP. The BFP-CXCR4 LV was pRRL.SIN.cPPT.MNDU3.mTag2BFP-CXCR4.WPRE. All lentiviral vectors were packaged in HEK 293T (ATCC) cells and vector titers determined in the murine erythroleukemia (MEL) (ATCC) cells as previously described (Perumbeti et al., Blood, 2009; Urbinati et al., Mol Ther, 2009; Arumugam et al., Mol Ther, 2009). […]
An alternative explanation for the competitive homing and engraftment advantage of HPC could be that they comprise the vast majority of CD34+HSPC (98-99%), while HSC are a small minority. It was experimentally conferred the HSC-enriched CD34+CD38− population with slightly higher CXCR4 expression than the CD34+CD38+HPC and assessed homing (FIG. 3D). […] CXCR4 expression on these populations was assessed before transplant. […] The sorted BFP-HPC population was then mixed with the BFP+CD34+CD38−CXCR4^high HSC-enriched cell population in ratios seen in CD34+HSPC prior to sorting, and transplanted them either IV or IBM, and homing of the CD34+CD38−BFP+CXCR4^high HSC-enriched cells was assessed. […]

[4] = tested on: CD34+CD38- HSC-enriched cells; test: Homing of CD34+CD38-BFP+ cells mixed with CD34+CD38+ HPC in NSG mice; assay type: in vivo, human; details: 20-22 hours
Text: as §1
An alternative explanation for the competitive homing and engraftment advantage of HPC could be that they comprise the vast majority of CD34+HSPC (98-99%), while HSC are a small minority. It was experimentally conferred the HSC-enriched CD34+CD38− population with slightly higher CXCR4 expression than the CD34+CD38+HPC and assessed homing (FIG. 3D). The CD34+HSPC were transduced with a BFP-CXCR4-encoding LV vector or a BFP-encoding LV control vector and CD34+CD38−BFP+HSC-enriched cells were sorted along with untransduced CD34+CD38+BFP−HPC. CXCR4 expression on these populations was assessed before transplant. In control cells, CXCR4 expression on the more primitive CD34+CD38−cells was much lower (MFI 16,930) than on CD34+CD38+HPC (MFI 35,098) (FIG. 3E), consistent with prior data (see, e.g., FIG. 2D). […] The sorted BFP-HPC population was then mixed with the BFP+CD34+CD38−CXCR4^high HSC-enriched cell population in ratios seen in CD34+HSPC prior to sorting, and transplanted them either IV or IBM, and homing of the CD34+CD38−BFP+CXCR4^high HSC-enriched cells was assessed. Control CD34+CD38−BFP+cells were also mixed with CD34+CD38+BFP−HPC and transplanted IV or IBM (FIG. 3D) and their homing into bone marrow was assessed. […]

VLA-4 = target: T1, VLA-4 (Homo sapiens, UniProt P05556+P13612); test: Homing of CD34+CD38+ HPC into bone marrow of NSG mice after VLA-4 blockade; assay type: in vivo; details: IV or IBM delivery; HPC pre-treated with 1 μM BIO5192
T1 construct: endogenous in cells; host or cells: human G-CSF mobilized peripheral blood CD34+CD38+BFP+ HPC, sorted after transduction with a BFP-only LV vector
T1 sequence (P13612 34-1032): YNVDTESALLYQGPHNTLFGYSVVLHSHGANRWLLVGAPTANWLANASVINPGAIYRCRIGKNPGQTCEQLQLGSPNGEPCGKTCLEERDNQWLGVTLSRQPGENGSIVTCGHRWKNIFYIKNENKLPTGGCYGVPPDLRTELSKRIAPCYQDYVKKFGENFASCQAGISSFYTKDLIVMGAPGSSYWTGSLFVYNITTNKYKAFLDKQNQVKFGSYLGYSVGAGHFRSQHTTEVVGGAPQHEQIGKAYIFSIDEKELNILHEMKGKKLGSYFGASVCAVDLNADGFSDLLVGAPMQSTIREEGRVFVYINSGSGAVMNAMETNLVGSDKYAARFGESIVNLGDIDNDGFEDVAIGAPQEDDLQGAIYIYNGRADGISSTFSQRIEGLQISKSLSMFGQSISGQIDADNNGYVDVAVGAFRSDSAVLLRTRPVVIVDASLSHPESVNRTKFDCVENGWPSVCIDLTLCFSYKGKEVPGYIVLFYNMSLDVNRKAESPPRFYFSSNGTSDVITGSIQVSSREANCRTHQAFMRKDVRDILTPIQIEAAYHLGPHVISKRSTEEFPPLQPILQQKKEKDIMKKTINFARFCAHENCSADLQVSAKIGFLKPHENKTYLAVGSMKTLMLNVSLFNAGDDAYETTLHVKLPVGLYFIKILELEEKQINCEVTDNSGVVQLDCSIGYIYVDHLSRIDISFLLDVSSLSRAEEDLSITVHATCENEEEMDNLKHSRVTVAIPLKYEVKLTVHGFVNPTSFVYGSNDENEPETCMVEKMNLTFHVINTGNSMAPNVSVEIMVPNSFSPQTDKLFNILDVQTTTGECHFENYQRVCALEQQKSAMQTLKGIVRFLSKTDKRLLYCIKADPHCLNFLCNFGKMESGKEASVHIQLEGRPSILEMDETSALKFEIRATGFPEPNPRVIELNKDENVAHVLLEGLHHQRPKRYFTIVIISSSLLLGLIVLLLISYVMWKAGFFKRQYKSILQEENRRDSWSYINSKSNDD
T1 sequence (P05556 21-798): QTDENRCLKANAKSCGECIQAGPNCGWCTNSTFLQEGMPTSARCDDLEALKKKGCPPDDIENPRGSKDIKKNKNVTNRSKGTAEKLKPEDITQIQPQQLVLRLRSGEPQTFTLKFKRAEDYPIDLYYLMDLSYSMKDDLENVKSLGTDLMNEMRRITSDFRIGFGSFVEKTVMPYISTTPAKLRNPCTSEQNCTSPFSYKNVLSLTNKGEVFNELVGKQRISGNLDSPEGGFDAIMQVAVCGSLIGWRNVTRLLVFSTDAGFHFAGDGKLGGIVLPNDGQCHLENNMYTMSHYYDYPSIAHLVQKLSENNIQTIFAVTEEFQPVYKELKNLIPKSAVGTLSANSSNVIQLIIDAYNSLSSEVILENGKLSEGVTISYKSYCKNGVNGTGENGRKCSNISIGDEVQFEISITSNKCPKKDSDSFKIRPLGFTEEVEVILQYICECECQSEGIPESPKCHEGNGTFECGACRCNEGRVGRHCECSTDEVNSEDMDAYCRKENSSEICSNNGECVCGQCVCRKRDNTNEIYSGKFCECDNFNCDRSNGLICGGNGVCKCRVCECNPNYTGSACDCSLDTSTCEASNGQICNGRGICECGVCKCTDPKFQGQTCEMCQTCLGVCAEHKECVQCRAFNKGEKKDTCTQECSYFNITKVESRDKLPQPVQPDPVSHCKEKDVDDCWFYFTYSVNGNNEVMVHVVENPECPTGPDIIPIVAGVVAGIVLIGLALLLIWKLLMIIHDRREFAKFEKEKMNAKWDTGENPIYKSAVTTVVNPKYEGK
Method: as §1
CD34+HSPC were resuspended in PBS containing 1 μM BIO5192 (Tocris, 5051) and incubated on ice for 20 minutes.

CXCR4 = CXCR4 (Homo sapiens, UniProt P61073)
Chain of CXCR4 (P61073 whole entry): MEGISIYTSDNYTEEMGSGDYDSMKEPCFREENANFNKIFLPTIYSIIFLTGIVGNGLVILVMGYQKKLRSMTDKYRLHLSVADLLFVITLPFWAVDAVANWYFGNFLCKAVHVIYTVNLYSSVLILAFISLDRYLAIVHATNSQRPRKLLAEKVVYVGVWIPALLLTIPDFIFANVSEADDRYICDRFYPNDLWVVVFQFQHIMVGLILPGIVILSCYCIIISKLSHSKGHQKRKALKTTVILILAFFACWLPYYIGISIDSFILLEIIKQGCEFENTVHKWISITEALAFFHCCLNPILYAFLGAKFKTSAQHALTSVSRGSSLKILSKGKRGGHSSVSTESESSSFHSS
Method: 6- to 14-week-old NOD.Cg-Prkdc^scid Il2rg^tm1Wjl/SzJ (NSG) mice were used in UCB- and MPB-derived HSPC transplant experiments. Mice were irradiated with 280 cGy prior to transplant. For homing experiments, each mouse received 3×10^6 CD34+cells and 16-22 hours post-injection, the mice were sacrificed and bone marrow from the femurs was analyzed for human cell content. For long-term engraftment experiments, mice received limiting dilution CD34+or CD34+CD38−HSPC doses. IV injections were done by injecting HSPC in 200-250 μL via tail vein and IBM injections were done by injecting HSPC in 10 μL into the femur.
The cells were washed with PBS and transplanted into NSG mice for homing experiments.
CD34+cells were transduced with a blue fluorescent protein (BFP) encoding LV vector and the CD34+CD38+BFP+HPC were sorted by flow cytometry.

pRRL.SIN.cPPT.MNDU3.eGFP.WPRE [GFP LV]
lineage repopulation [1]: full multilineage repopulation
gene transfer efficiency ([2]; CD34+CD38- HSC-enriched cells, experiment of FIG. 4): 69%
gene transfer ([2]; CD34+CD38- cells, homing/engraftment experiment of FIGS. 5 and 10): 60%
gene transfer ([2]; MPB CD34+HSPC, experiment of FIG. 1): 63-66%

pRRL.SIN.cPPT.MNDU3.mTag2BFP-CXCR4.WPRE [BFP-CXCR4 LV vector]
CXCR4 expression MFI [3]: 37,453
homing of CD34+CD38- cells to bone marrow ([4]; IV administration, mixed with majority of CD34+38+ HPC): higher homing levels
homing of CD34+CD38- cells to bone marrow ([4]; direct IBM transplantation, mixed with majority of HPC): remarkably improved homing advantage

Cc1ccccc1NC(=O)Nc1ccc(CC(=O)N(C)[C@@H](CC(C)C)C(=O)NCC[C@H](NC(=O)[C@@H]2CCCN2S(=O)(=O)c2cc(Cl)cc(Cl)c2)C(=O)O)cc1 [BIO5192]
CD34+38+ HPC homing pattern vs corresponding controls (VLA-4): did not alter

c1cc(CN2CCCNCCNCCCNCC2)ccc1CN1CCCNCCNCCCNCC1 [AMD3100]
human HPC content in the injected femur (IF) (CXCR4; IBM delivery, CD34+CD38+BFP+ HPC pre-treated with 100 ug/mL AMD3100, reduced to homing levels of IV delivery or nonIF): significantly reduced
homing of IV injected cells (CXCR4; IV delivery, HPC pre-treated with AMD3100): note blocked
